These are literature values, as cited in patent US20080066744A1, “PROCESS FOR PRODUCING METERED DOSE INHALER FORMULATIONS” (Schering Corporation, priority 2002, published 2008).

Where two headings read alike, the source gives them in different places.

`C[C@@H]1C[C@H]2[C@@H]3CCC4=CC(=O)C=C[C@]4(C)[C@@]3(Cl)[C@@H](O)C[C@]2(C)[C@@]1(OC(=O)c1ccco1)C(=O)CCl` [Mometasone furoate, 9,21-Dichloro-11(beta), 17-dihydroxy-16(alpha)-methylpregna-1,4-diene-3,20-dione 17-(2 furoate)]: the solubility entry (in acetone) was “soluble”; the solubility entry (in chloroform) is on record as “soluble”; the solubility result (in ethanol) is “slightly soluble”; the solubility result (in isopropanol) is reported as “slightly soluble”; the solubility result (in methanol) is “slightly soluble”; the solubility entry (in tetrahydrofuran) is recorded as “freely soluble”. Further, the solubility result (in water) is on record as “practically insoluble”.

As for “(alpha) ^1[(tert-Butylamino)methyl]4-hydroxy-m-xylene-(alpha),(alpha)′-diol sulfate (2:1)(salt) [Albuterol sulfate]”, the solubility result is, setting by setting: (in ethanol) “slightly soluble”; (in water) “soluble”.
